Test system: Plasmodium falciparum
Assay: GSK_TCMDC: Inhibition of Plasmodium falciparum 3D7 in whole erythrocytes, using parasite LDH activity as an index of growth.
Type: functional, organism-based
Conditions: Plasmodium falciparum, 3D7

**Q.** With `O=C(NCCCCCN1CCC(c2c[nH]c3ccccc23)CC1)c1ccc(Cl)c(Cl)c1` as the compound, how does the XC50 read?
**A.** Its XC50 is 1.36 µM.

**Q.** Which XC50 does the source give for `CC(=O)N(C)c1cccc(C(=O)Nc2cccc(-c3ccc(-c4nc5cc(C(F)(F)F)ccc5[nH]4)cc3)c2)c1` here?
**A.** The XC50 was 1 µM.

**Q.** `CN(CCCCCN1CCC(NC(=O)Nc2ccc(C(F)(F)F)cc2)C1)C(=O)/C=C/c1ccc(Cl)c(Cl)c1` (configuration not stated) was tested. Which XC50 did it give?
**A.** The XC50 was 0.771 µM.

**Q.** With `CCn1c(-c2nonc2N)nc2c(-c3cccc(NC(=O)Nc4ccc(C#N)cc4)c3)ncc(OCCCN)c21` as the compound, how does the XC50 read?
**A.** The XC50 was 1.51 µM.

**Q.** With `Cc1nn(-c2ccccc2)nc1C(=O)NC1CCN(CCNC(=O)c2ccc(Cl)c(Cl)c2)CC1` as the compound, how does the XC50 read?
**A.** Its XC50 is 0.868 µM.

**Q.** For `OC(CNc1cccc(Cl)c1)Cn1c2ccc(Cl)cc2c2cc(Cl)ccc21` (configuration not stated), which XC50 is on record?
**A.** The XC50 was 0.958 µM.

**Q.** How did the XC50 turn out when `CCC[C@@H]([C@@H](CC1CCCCC1)C(=O)N[C@H](C(=O)Nc1nccs1)[C@@H](C)OCc1ccccc1)N(O)C=O` was run?
**A.** The XC50 was 0.0782 µM.

**Q.** How did the XC50 turn out when `O=C(Nc1ccc(OC2CCN(Cc3ccccc3)CC2)c(Cl)c1)c1ccc(F)cc1` was run?
**A.** The XC50 was 0.796 µM.

**Q.** How did the XC50 turn out when `Cc1cccc2nc(-c3cccc(-c4cccc(NC(=O)C(C)CN(C)C)c4)c3)[nH]c12` (configuration not stated) was run?
**A.** The XC50 was 0.413 µM.

**Q.** For `Cc1cc(NC(=O)NCCN2CCC(NC(=O)c3ccc(C(F)(F)F)cc3)CC2)c2ccccc2n1`, which XC50 is on record?
**A.** Its XC50 is 0.413 µM.

**Q.** How did the XC50 turn out when `CC1(C)Cc2c(oc3ncn(CCn4cnc5oc6c(c5c4=N)CC(C)(C)SC6)c(=N)c23)CS1` was run?
**A.** Its XC50 is 0.719 µM.

**Q.** `Cc1cccc(CNc2ncc(C)c(NCCC(=O)Nc3ccccc3)n2)c1` was tested. Which XC50 did it give?
**A.** Its XC50 is 1.15 µM.

**Q.** `COc1cc(CCCON2C(=N)N=C(N)NC2(C)C)cc(OC)c1OC` was tested. Which XC50 did it give?
**A.** Its XC50 is 0.0391 µM.

**Q.** Which XC50 does the source give for `COc1ccc(-c2nccc(NC(=N)NCc3ccccc3)n2)cc1` here?
**A.** Its XC50 is 0.671 µM.

**Q.** For `NC(=O)c1ccc(-c2ccc3ccnc(N)c3c2)cc1`, which XC50 is on record?
**A.** The XC50 was 0.419 µM.

**Q.** `COc1ccc2c(O)c(C3CCC(c4ccc(Cl)cc4)CC3)c(C)nc2c1` (configuration not stated) was tested. Which XC50 did it give?
**A.** The XC50 was 0.647 µM.

**Q.** Which XC50 does the source give for `c1ccc(-c2nc(Nc3nc4ccccc4[nH]3)[nH]c2-c2ccccc2)cc1` here?
**A.** The XC50 was 0.619 µM.

**Q.** `CCC[C@@H]([C@@H](CC1CCCCC1)C(=O)NC(C(=O)Nc1nccs1)C(CC)c1ccccc1)N(O)C=O` (some centres not stated) was tested. Which XC50 did it give?
**A.** Its XC50 is 0.689 µM.

**Q.** Which XC50 does the source give for `CC[C@]1(C)C[C@@H](NC(=O)NC(=O)c2ccc(OC)cc2)[C@]2(C)[C@H](C)CC[C@]3(CCC(=O)[C@H]32)[C@@H](C)[C@@H]1OC(=O)NC(=O)c1ccc(OC)cc1` here?
**A.** Its XC50 is 0.987 µM.

**Q.** `CC(=O)c1ccccc1C(=O)N1CCOc2ccc(C(O)C(c3ccccc3)c3ccccc3)cc2C1` (configuration not stated) was tested. Which XC50 did it give?
**A.** Its XC50 is 0.905 µM.

**Q.** How did the XC50 turn out when `Cc1ccn2c(C(=O)N3CCN(c4cccc5c4nc(-c4ccoc4)n5Cc4ccccn4)CC3)c(C)nc2c1` was run?
**A.** The XC50 was 0.203 µM.

**Q.** For `Cc1cc(O)c(CNC2CCCCC2)cc1C`, which XC50 is on record?
**A.** The XC50 was 1.05 µM.

**Q.** How did the XC50 turn out when `COc1ccc(CCNCCCCCCNCCc2ccc(Cl)cc2)c(Cl)c1OC` was run?
**A.** Its XC50 is 0.825 µM.

**Q.** How did the XC50 turn out when `COc1ccc(-c2ccccc2CNc2nc(NCCc3ccc(O)cc3)nc(N3CCNCC3)n2)cc1` was run?
**A.** The XC50 was 1.08 µM.

**Q.** With `Cn1nc(C(F)(F)F)cc1-c1ccc(C(=O)Nc2ccc3c(c2)CNCC3(C)C)s1` as the compound, how does the XC50 read?
**A.** The XC50 was 1.01 µM.

**Q.** How did the XC50 turn out when `CC(C)(NCc1ccc(OC(F)(F)F)cc1)c1nc(-c2ccc(Cl)c(O)c2)c(-c2ccncc2)[nH]1` was run?
**A.** The XC50 was 0.94 µM.

**Q.** `COc1c(C2CCN(CCCCNC(=O)c3ccc(-c4ccc(C(F)(F)F)cc4)c(C(=O)OC(C)C)c3)CC2)ccc2c1CCCC2` was tested. Which XC50 did it give?
**A.** The XC50 was 0.858 µM.

**Q.** Which XC50 does the source give for `CCC(Cc1ccccc1)c1cc(O)c(Cc2ccc(-c3ccccc3)cc2)c(=O)o1` (configuration not stated) here?
**A.** The XC50 was 0.971 µM.

**Q.** How did the XC50 turn out when `CC(=O)Nc1cccc(C(=O)Nc2cccc(-c3ccc(-c4nc5cccc(C)c5[nH]4)cc3)c2)c1` was run?
**A.** Its XC50 is 0.908 µM.

**Q.** How did the XC50 turn out when `COc1ccc(-c2ccc(NC(=O)c3ccc(C#N)cc3)c(F)c2)cc1CN(C)CCN(C)C` was run?
**A.** Its XC50 is 0.974 µM.

**Q.** For `CCN(CC)CCNc1nccc(N(C)c2ccc(NC(=O)Nc3cc(C(F)(F)F)ccc3F)cc2)n1`, which XC50 is on record?
**A.** The XC50 was 0.549 µM.

**Q.** Which XC50 does the source give for `COc1ccc(C(=O)CCc2ccc(O)cc2)cc1` here?
**A.** Its XC50 is 0.483 µM.

**Q.** For `CC(=O)Nc1ncc(C(=O)Nc2cccc(-c3cccc(-c4nc5ccccc5[nH]4)c3)c2)s1`, which XC50 is on record?
**A.** Its XC50 is 0.814 µM.

**Q.** For `COc1ccc(CN2CCC(NCc3ccc(C(F)(F)F)cc3)CC2)cc1`, which XC50 is on record?
**A.** Its XC50 is 0.916 µM.

**Q.** For `COc1cc(C2C(Oc3ccccc3)C(=O)N2Cc2ccc(F)cc2)cc(OC)c1OC` (configuration not stated), which XC50 is on record?
**A.** Its XC50 is 0.956 µM.

**Q.** How did the XC50 turn out when `COc1ccc(-c2cccc(NC(=O)c3cccc(C#N)c3)c2)cc1CN1CCCN(C)CC1` was run?
**A.** Its XC50 is 0.19 µM.

**Q.** Which XC50 does the source give for `CC1(C)N=C(N)N=C(N)N1c1ccc(Cl)cc1` here?
**A.** The XC50 was 0.0311 µM.

Source: ChEMBL document CHEMBL1157539, “Thousands of chemical starting points for antimalarial lead identification” (Nature, 2010)
